Where a name gives a salt, the structure may show the parent alone.
Assays:
Type in all cases: in vivo, BALB/c nude mouse
[1] = test system: human ovarian cancer cell line ES-2; experiment: Life-prolonging effect in nude mouse model for peritoneal disseminated metastasis (ES-2), intraperitoneal administration; conditions: once three days after tumor transplantation, observed until 80 days
Protocol: Therapeutic effects on peritoneal disseminated metastasis were tested by using a mouse model for peritoneal disseminated metastasis. Specifically, the mouse model for peritoneal disseminated metastasis was prepared by intraperitoneal injection of human ovarian cancer cell line ES-2 (1.0×10^6 cells) to an 8-week old BALB/c nude mouse.
In order to estimate advantageous life-prolonging effects of the present micelle preparation having encapsulated paclitaxel, the model mice were divided into three groups, i.e., 8 mice per group. […] In addition, the drug dosage was determined by converting a clinical dosage for intravenous route (paclitaxel 210 mg/m^2 and paclitaxel micelle preparation: 150 mg/m^2) to those for a mouse using an AUC comparison. […]
1 ml of saline (Control group); 1 ml of saline containing 66.7 mg/kg of irinotecan hydrochloride (66.7 mg/kg CPT-11 administered group); and 1 ml of 5% glucose solution containing the micelle preparation containing 30 mg/kg of SN-38 (30 mg/kg SN-38 micelle administered group) were intraperitoneally administered to the mouse of each group, respectively. […] In addition, the drug dosage was determined as the one-third of the maximum amount allowed for intravenous route administration for a mouse. […]

[2] = test system: human stomach cancer cell line MKN45-P; experiment: Life-prolonging effect in nude mouse model for peritoneal disseminated metastasis (MKN45-P), intraperitoneal administration; conditions: 50 mg/kg, once three days after tumor transplantation, observed until 60 days
Protocol: In order to estimate an effect of intraperitoneal administration of a micelle preparation having encapsulated paclitaxel, a mouse model for peritoneal disseminated metastasis was prepared by intraperitoneal injection of human stomach cancer cell line MKN45-P (1.0×10^6 cells) to an 8-week old BALB/c nude mouse. Three groups were created as following: 1 ml of saline (Control group, 8 mice); 1 ml of saline containing 50 mg/ml of paclitaxel (50 mg/kg PTX administered group, 8 mice); and 1 ml of 5% glucose solution containing the micelle preparation containing 25 mg/ml of encapsulated paclitaxel (25 mg/kg PTX micelle administered group, 8 mice) were intraperitoneally administered to the mouse of each group, respectively. The amounts of the ingredients were of by 25 g mouse body weight. The administrations were carried out once after three days of the tumor transplantation. The mice were observed until 60 days after the cell transplantation. The survival rates was recorded and the survival curves was plotted in FIG. 4.

[3] = test system: human ovarian cancer cell line SHIN-3; experiment: Life-prolonging effect in nude mouse model for peritoneal disseminated metastasis (SHIN-3), intraperitoneal administration
Protocol: In order to estimate an effect of intraperitoneal administration of the micelle preparation having encapsulated paclitaxel, a mouse model for peritoneal disseminated metastasis was prepared by intraperitoneal injection of human ovarian cancer cell line SHIN-3 (1.0×10^7 cells) to an 8-week old BALB/c nude mouse. Three groups were created as following: 1 ml of saline (Control group, 18 mice); 1 ml of saline containing […] of paclitaxel (100 mg/kg PTX administered group, 8 mice); and 1 ml of 5% glucose solution containing the micelle preparation containing 50 mg/ml of encapsulated paclitaxel (50 mg/kg PTX micelle administered group, 8 mice) were intraperitoneally administered to the mouse of each group, respectively. The amounts of the ingredients were of by 20 g mouse body weight. The administrations were carried out once after one week of the tumor transplantations. The mice were observed until 120 days after the cell transplantation. The survival rates were recorded and the survival curves was plotted in FIG. 3.

CCc1c2c(nc3ccc(OC(=O)N4CCC(N5CCCCC5)CC4)cc13)-c1cc3c(c(=O)n1C2)COC(=O)[C@]3(O)CC [CPT-11, irinotecan hydrochloride]
50% survival rate, day after transplantation ([1]; 66.7 mg/kg, Control Day 21): 56 days

CC(=O)O[C@H]1C(=O)[C@@]2(C)[C@H]([C@H](OC(=O)c3ccccc3)[C@]3(O)C[C@H](OC(=O)[C@H](O)[C@@H](NC(=O)c4ccccc4)c4ccccc4)C(C)=C1C3(C)C)[C@]1(OC(C)=O)CO[C@@H]1C[C@@H]2O [PTX, paclitaxel]
50% survival rate, day after transplantation [2]: 55 days | 50% survival rate, day after transplantation ([1]; 70 mg/kg, Control Day 17): 44 days | toxic death ([3]; 100 mg/kg PTX administered group, 8 mice, once): two cases of toxic death | 50% survival rate, day after transplantation ([3]; 100 mg/kg, once one week after tumor transplantation, observed until 120 days): 100 days
